Among the data in PubChem BioAssay AID256 (DTP/NCI, 2004) are T/C values, retold here.

Toxic doses and inconclusive results are not listed.

In the assay the test system is CD2F1 mice, L1210 leukemia ip, survival T/C. As to the kind of experiment: NCI In Vivo Anticancer Drug Screen. Data for tumor model L1210 Leukemia (intraperitoneal) in CD2F1 (CDF1) mice. As to conditions: higher = longer survival. In outline: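 Activity against a transplanted murine tumor was judged by comparing the compound group with a vehicle group. The outcome in the treated animals was divided by that in the controls.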

The mark [1] stands for this setting: endpoint: mean survival time, dose: 100.0 mg/kg/injection, schedule: Q01DX009 (ip), vehicle: saline with Tween-80.
[2] abbreviates: endpoint: mean survival time, dose: 200.0 mg/kg/injection, schedule: Q01DX009 (ip), vehicle: saline with Tween-80.
The mark [3] stands for this setting: endpoint: mean survival time, dose: 400.0 mg/kg/injection, schedule: Q01DX009 (ip), vehicle: saline with Tween-80.
[4] abbreviates: endpoint: mean survival time, dose: 100.0 mg/kg/injection, schedule: Q04DX003 (ip), vehicle: saline with Tween-80.
Where [5] appears, read: endpoint: mean survival time, dose: 200.0 mg/kg/injection, schedule: Q04DX003 (ip), vehicle: saline with Tween-80.
The mark [6] stands for this setting: endpoint: mean survival time, dose: 400.0 mg/kg/injection, schedule: Q04DX003 (ip), vehicle: saline with Tween-80.

For the compound `COc1ccc(C(=O)c2ccccc2NC(C)=O)cc1`, the T/C under setting [1] was 98 % of control, the T/C under setting [2] is 101 % of control and the T/C under setting [3] was 98 % of control.
For the compound `c1ccc2c3c(c4c(c2c1)CN(C1CCCCC1)CO4)OCN(C1CCCCC1)C3`, the T/C (endpoint: median survival time, dose: 0.19 mg/kg/injection, schedule: Q01DX009 (ip), vehicle: other) is 101 % of control; the T/C (endpoint: median survival time, dose: 0.38 mg/kg/injection, schedule: Q01DX009 (ip), vehicle: other) was 101 % of control; the T/C (endpoint: median survival time, dose: 0.75 mg/kg/injection, schedule: Q01DX009 (ip), vehicle: other) was 98 % of control; the T/C (endpoint: median survival time, dose: 1.5 mg/kg/injection, schedule: Q01DX009 (ip), vehicle: other) is 98 % of control.
For the compound `CCOP(=O)(OCC)C1=C(P(=O)(OCC)OCC)C(F)(F)C1(F)F`, the T/C (endpoint: mean survival time, dose: 9.5 mg/kg/injection, schedule: Q01DX001 (ip), vehicle: other) is 97 % of control; the T/C (endpoint: mean survival time, dose: 19.0 mg/kg/injection, schedule: Q01DX001 (ip), vehicle: other) was 97 % of control; the T/C (endpoint: mean survival time, dose: 38.0 mg/kg/injection, schedule: Q01DX001 (ip), vehicle: other) was 91 % of control.
`CCCCOC(=O)CC(=O)OCCCC`: the T/C is, setting by setting: under setting [1], 102 % of control; under setting [4], 101 % of control; under setting [2], 104 % of control; under setting [5], 93 % of control; under setting [3], 96 % of control; under setting [6], 93 % of control.
Turning to `COC(=O)CCc1nc2ccccc2c(=O)[nH]1`, the T/C (endpoint: mean survival time, dose: 100.0 mg/kg/injection, schedule: Q04DX003 (ip), vehicle: Klucel (hydroxypropylcellulose) (HPC)) was 102 % of control; the T/C (endpoint: mean survival time, dose: 200.0 mg/kg/injection, schedule: Q04DX003 (ip), vehicle: Klucel (hydroxypropylcellulose) (HPC)) was 109 % of control; the T/C (endpoint: mean survival time, dose: 400.0 mg/kg/injection, schedule: Q04DX003 (ip), vehicle: Klucel (hydroxypropylcellulose) (HPC)) is 102 % of control.
On to `CCOC(=O)c1cc2ccccc2oc1=O`, for which the T/C (endpoint: mean survival time, dose: 25.0 mg/kg/injection, schedule: Q01DX009 (ip), vehicle: saline with Tween-80) is 100 % of control; the T/C (endpoint: mean survival time, dose: 50.0 mg/kg/injection, schedule: Q01DX009 (ip), vehicle: saline with Tween-80) was 97 % of control; the T/C under setting [1] is 109 % of control.
Regarding `CN(Cc1cnc2nc(N)nc(N)c2n1)c1ccc(C(=O)NC(CCC(=O)O)C(=O)O)cc1.[W]` (stereo not given), the T/C was 178 % of control (endpoint: median survival time, dose: 11.0 mg/kg/injection, schedule: Q01DX009 (ip), vehicle: water); 202 % of control (endpoint: median survival time, dose: 12.0 mg/kg/injection, schedule: Q01DX009 (ip), vehicle: water); 202 % of control (endpoint: median survival time, dose: 12.0 mg/kg/injection, schedule: Q01DX009 (other), vehicle: water); 190 % of control (endpoint: median survival time, dose: 14.0 mg/kg/injection, schedule: Q01DX009 (ip), vehicle: water); 190 % of control (endpoint: median survival time, dose: 14.0 mg/kg/injection, schedule: Q## X009 (ip), vehicle: water); 178 % of control (endpoint: median survival time, dose: 21.0 mg/kg/injection, schedule: Q01DX009 (ip), vehicle: water). The T/C is 190 % of control (endpoint: median survival time, dose: 22.0 mg/kg/injection, schedule: Q01DX009 (ip), vehicle: water); 190 % of control (endpoint: median survival time, dose: 22.0 mg/kg/injection, schedule: Q01DX009 (other), vehicle: water); 166 % of control (endpoint: median survival time, dose: 41.0 mg/kg/injection, schedule: Q01DX009 (ip), vehicle: water); 166 % of control (endpoint: median survival time, dose: 42.0 mg/kg/injection, schedule: Q01DX009 (ip), vehicle: water); 166 % of control (endpoint: median survival time, dose: 42.0 mg/kg/injection, schedule: Q01DX009 (other), vehicle: water).
For the compound `Cc1cc(CC(O)(C(F)(F)F)C(F)(F)F)cc(C(=O)O)n1`, the T/C was 98 % of control under setting [4], 107 % of control under setting [5] and 87 % of control under setting [6].
Turning to `ON(C(=S)Nc1ccccc1)c1ccccc1`, the T/C is 93 % of control (endpoint: mean survival time, dose: 100.0 mg/kg/injection, schedule: Q01DX001 (ip), vehicle: saline); 98 % of control (endpoint: mean survival time, dose: 200.0 mg/kg/injection, schedule: Q01DX001 (ip), vehicle: saline); 97 % of control (endpoint: mean survival time, dose: 400.0 mg/kg/injection, schedule: Q01DX001 (ip), vehicle: saline).
For the compound `COC1(c2ccccc2)C(c2ccccc2)=CC(=O)/C1=C\c1ccccc1` (stereo not given), the T/C reads like this: under setting [4], 98 % of control; under setting [5], 91 % of control; under setting [6], 86 % of control.
Consider `C[N+](C)(C)Cc1c[nH]c2ccccc12`, for which the T/C runs as follows: (endpoint: mean survival time, dose: 100.0 mg/kg/injection, schedule: Q01DX001 (ip), vehicle: saline with Tween-80) 94 % of control; (endpoint: mean survival time, dose: 200.0 mg/kg/injection, schedule: Q01DX001 (ip), vehicle: saline with Tween-80) 91 % of control; (endpoint: mean survival time, dose: 400.0 mg/kg/injection, schedule: Q01DX001 (ip), vehicle: saline with Tween-80) 96 % of control.
As for `CCCCCCCCCCCCCCNC(=O)C[N+](C)(C)Cc1ccccc1`, the T/C runs as follows: (endpoint: mean survival time, dose: 0.25 mg/kg/injection, schedule: Q01DX009 (ip), vehicle: saline sonified) 101 % of control; (endpoint: mean survival time, dose: 0.5 mg/kg/injection, schedule: Q01DX009 (ip), vehicle: saline sonified) 95 % of control; (endpoint: mean survival time, dose: 1.0 mg/kg/injection, schedule: Q01DX009 (ip), vehicle: saline sonified) 95 % of control; (endpoint: mean survival time, dose: 5.0 mg/kg/injection, schedule: Q04DX003 (ip), vehicle: saline) 96 % of control; (endpoint: mean survival time, dose: 10.0 mg/kg/injection, schedule: Q04DX003 (ip), vehicle: saline) 96 % of control.
